Measurements published in patent US20250213547A1, “METHODS OF TREATING NEUROLOGICAL DISEASES” (priority 2022, published 2025).
Where two headings read alike, the source gives them in different places.

Legend:
Type in all cases: in vivo, human
[1] = test system: plasma 24HC; experiment: Multiple rising dose study: pharmacodynamics, plasma 24HC
Experimental: An 8 mL blood sample was collected to obtain plasma 24HC levels for PD analysis on day 1 and day 14 at 30 minutes pre-dose and at 30 minutes, and 1, 2, 4, 8, 12, 16, and 24 hours post-dose. The mean 24-hour area under the effect curve (AUEC24), presented as the percent change in 24HC from baseline, for doses 100, 300, and 400 mg were −46.8, −61.9, and −62.7, respectively. […] Example 7 below further describes the study's PD protocol and trial results, including safety (example 8).
Plasma 24HC collection and measurement were as described in example 5, with the exception that the 30—minute pre-dose sampling occurred on day 1, 7, 12, 13 and 14, and the 24-hour sampling occurred on day 1 and 14. Assay quality control measures, parameter and statistical analyses were performed as described in example 5. […] Subjects in the 300 mg BID and 600 mg QD cohorts discontinued treatment after day 10 due to some subjects experiencing adverse effects.

[2] = test system: plasma 24HC; experiment: Healthy Japanese subjects, Part 1: plasma 24HC pharmacodynamics; details: for AUEC24 of plasma 24HC / AUECt of plasma 24HC (time 0 to last sampling time point) / E24 of plasma 24HC (observed effect at 24 hours) / Emax of plasma 24HC (maximum drug-induced effect): mean (% CV); for Emax: Homo sapiens, read-out: % change from Baseline in Emax of plasma 24HC; for Emax / % change from Baseline in AUEC24 of plasma 24HC / % change from Baseline in E24 of plasma 24HC: mean; for Time to Emax of plasma 24HC: median (min-max)
Experimental: (§1) On Day 1 of each dose level, a single dose of TAK-935 or placebo was administered, and safety, PK and PD were evaluated.
Blood samples for PD analysis of plasma 24HC level were collected into blood collection tubes (vacutainer) containing the anticoagulant K2EDTA.
The PD assessments described below were performed at the time points stipulated in the schedule of procedures. The additional PD endpoints included the following PD parameters for plasma 24HC: […]

[3] = Healthy Japanese subjects: safety and tolerability
Source text: Primary Objective: To evaluate the safety and tolerability of TAK-935 in healthy Japanese subjects when administered as single oral dose or multiple oral doses with titration. Secondary Objective: To evaluate the PK of TAK-935 in healthy Japanese subjects when administered as single oral dose or multiple oral doses with titration.
(§2) This study consisted of 2 parts, and was a randomized, double-blind, placebo-controlled study to assess safety, tolerability, and PK and PD of TAK-935 when administered orally in healthy Japanese subjects.
The primary endpoint of the study included: Safety endpoint: Percentage of subjects who experience at least 1 TEAE Secondary endpoints included:
• Laboratory tests. • Vital signs. • ECG parameters.

[4] = Healthy Japanese subjects, Part 1 (single dose 200, 600, 1200 mg tablets): PK of TAK-935 and M-I; details: plasma; for Vd/F: read-out: Vz/F; for half-life: read-out: t1/2z (terminal disposition phase half-life) (converted); for AUC: read-out: Mean AUC24
Experimental: as §2, §1
After the screening visit, eligible participants checked—in on Day-2. On Day 1, eligible participants were randomized 6:2 to TAK-935 or placebo in each dose group in double-blinded fashion. No stratification variables were used for randomization. On the same day, study drug was administered by oral administration of single dosing of TAK-935 to each cohort at each dose level. The subjects were discharged on Day 3. Intensive PK samplings were performed from Day 1 to Day 3.
Subjects received a single dose of TAK-935 or placebo of 200 mg, 600 mg, or 1200 mg with 150 mL of water, after fasting for at least 10 hours and remained fasted until 4 hours after dosing.
Blood samples for PK analysis of TAK-935 and its metabolites (M-I) were collected into blood collection tubes (vacutainer) containing the anticoagulant K2EDTA (Table 40e and Table 40f).
The PK parameters of TAK-935 and its metabolites (M-I) were determined from the concentration-time profiles for all evaluable subjects. Actual sampling times, rather than scheduled sampling times, were used in all computations involving sampling times. The following PK parameters were calculated from plasma concentrations of TAK-935 and its metabolites (M-I), unless otherwise specified: […]

[5] = multiple doses 100-300 mg BID, TAK-935 group
[6] = TAK-935 200 mg single dose, mean
[7] = TAK-935 600 mg single dose, mean
[8] = TAK-935 1200 mg single dose, mean
[9] = human, oral, TAK-935 200 mg single dose, mean
[10] = human, oral, TAK-935 600 mg single dose, mean
[11] = human, oral, TAK-935 1200 mg single dose, mean
[12] = human, oral, TAK-935, single dose 200 mg
[13] = human, oral, TAK-935, single dose 600 mg
[14] = human, oral, TAK-935, single dose 1200 mg

O=C(c1cccnc1-c1ccncc1)N1CCC(O)(Cc2ccccc2)CC1 [soticlestat]
24HC AUEC24, mean, percent change from baseline (day −1) ([1]; 100 mg QD day 1): −8.15%
24HC E24, mean, percent change from baseline (day −1) ([1]; 100 mg QD day 1): −20.9%
24HC AUEC24, mean, percent change from baseline (day −1) ([1]; 100 mg QD day 14): −46.8%
24HC E24, mean, percent change from baseline (day −1) ([1]; 100 mg QD day 14): −49.1%
24HC AUEC24, mean, percent change from baseline (day −1) ([1]; 300 mg BID day 1): −6.90%
24HC E24, mean, percent change from baseline (day −1) ([1]; 300 mg BID day 1): −10.5%
24HC AUEC24, mean, percent change from baseline (day −1) ([1]; 300 mg QD day 1): −12.7%
24HC E24, mean, percent change from baseline (day −1) ([1]; 300 mg QD day 1): −22.4%
24HC AUEC24, mean, percent change from baseline (day −1) ([1]; 300 mg QD day 14): −61.9%
24HC E24, mean, percent change from baseline (day −1) ([1]; 300 mg QD day 14): −63.8%
24HC AUEC24, mean, percent change from baseline (day −1) ([1]; 400 mg QD day 1): −11.7%
24HC E24, mean, percent change from baseline (day −1) ([1]; 400 mg QD day 1): −28.4%
24HC AUEC24, mean, percent change from baseline (day −1) ([1]; 400 mg QD day 14): −62.7%
24HC E24, mean, percent change from baseline (day −1) ([1]; 400 mg QD day 14): −65.6%
24HC AUEC24, mean, percent change from baseline (day −1) ([1]; 600 mg QD day 1): −14.0%
24HC E24, mean, percent change from baseline (day −1) ([1]; 600 mg QD day 1): −30.6%
maximum decrease in percent change from Baseline of mean AUEC24 ([2]; 1200 mg single dose, compared with placebo): approximately 11.4%
AUEC24 of plasma 24HC ([2]; Day 1, single dose 200 mg): 1017 (27.5) h*ng/mL
AUEC24 of plasma 24HC ([2]; Day 1, single dose 600 mg): 1311 (30.2) h*ng/mL
AUEC24 of plasma 24HC ([2]; Day 1, single dose 1200 mg): 898.3 (16.6) h*ng/mL
Emax ([2]; single dose 200 mg): -17.7%
Emax ([2]; single dose 600 mg): -21.4%
Emax ([2]; single dose 1200 mg): -29.7%
% change from Baseline in AUEC24 of plasma 24HC ([2]; single dose 200 mg): −8.875%
% change from Baseline in E24 of plasma 24HC ([2]; single dose 200 mg): −20.29%
AUECt of plasma 24HC (time 0 to last sampling time point) ([2]; single dose 200 mg): 1918 (26.0) h*ng/mL
E24 of plasma 24HC (observed effect at 24 hours) ([2]; single dose 200 mg): 39.95 (25.4) ng/mL
Emax of plasma 24HC (maximum drug-induced effect) ([2]; single dose 200 mg): 35.25 (24.3) ng/mL
Time to Emax of plasma 24HC ([2]; single dose 200 mg): 48.00 (48.0-48.0) h
% change from Baseline in AUEC24 of plasma 24HC ([2]; single dose 600 mg): −8.482%
% change from Baseline in E24 of plasma 24HC ([2]; single dose 600 mg): −24.02%
AUECt of plasma 24HC (time 0 to last sampling time point) ([2]; single dose 600 mg): 2425 (31.2) h*ng/mL
E24 of plasma 24HC (observed effect at 24 hours) ([2]; single dose 600 mg): 48.47 (32.0) ng/mL
Emax of plasma 24HC (maximum drug-induced effect) ([2]; single dose 600 mg): 43.25 (35.3) ng/mL
Time to Emax of plasma 24HC ([2]; single dose 600 mg): 48.00 (24.0-48.0) h
% change from Baseline in AUEC24 of plasma 24HC ([2]; single dose 1200 mg): −11.36%
% change from Baseline in E24 of plasma 24HC ([2]; single dose 1200 mg): −22.65%
AUECt of plasma 24HC (time 0 to last sampling time point) ([2]; single dose 1200 mg): 1627 (18.7) h*ng/mL
E24 of plasma 24HC (observed effect at 24 hours) ([2]; single dose 1200 mg): 33.57 (19.8) ng/mL
Emax of plasma 24HC (maximum drug-induced effect) ([2]; single dose 1200 mg): 27.30 (24.4) ng/mL
Time to Emax of plasma 24HC ([2]; single dose 1200 mg): 48.00 (48.0-48.0) h
deaths, SAEs, TEAEs leading to discontinuation ([3]; healthy Japanese subjects): No deaths, SAEs, or TEAEs leading to study drug discontinuation
intensity of TEAEs ([3]; healthy Japanese subjects): All of the TEAEs were mild
subjects who experienced TEAEs [3, 5]: 5 subjects
subjects with drug-related TEAEs [3, 5]: 3 subjects
tolerability ([3]; single dose up to 1200 mg and multiple doses 100 to 300 mg BID): well tolerated
CL/F [4, 6]: 470.8 L/h
Lambda z [4, 6]: 0.1608 h⁻¹
AUC∞ [4, 7]: 3917 ng·h/mL
CL/F [4, 7]: 178.4 L/h
Lambda z [4, 7]: 0.1634 h⁻¹
Tmax ([4]; TAK-935 600 mg single dose, median): 30 min
CL/F [4, 8]: 119.8 L/h
Lambda z [4, 8]: 0.1922 h⁻¹
AUC(0-inf) [4, 9]: 720 ng·h/mL
AUC(0-t) [4, 9]: 695 ng·h/mL
Vd/F [4, 9]: 4260 L
half-life [4, 9]: 353 min
AUC(0-t) [4, 10]: 3860 ng·h/mL
Vd/F [4, 10]: 2340 L
half-life [4, 10]: 522 min
AUC(0-inf) [4, 11]: 11400 ng·h/mL
AUC(0-t) [4, 11]: 11400 ng·h/mL
Vd/F [4, 11]: 769 L
half-life [4, 11]: 304 min
Tmax ([4]; human, oral, 200 mg, TAK-935 200 mg single dose, median, read-out: tmax): 45 min
Tmax ([4]; human, oral, 1200 mg, TAK-935 1200 mg single dose, median, read-out: tmax): 30 min
Tmax ([4]; human, oral, 1200 mg, TAK-935, single dose 200, 600, 1200 mg, read-out: Tmax (median), range): 30 to 45 min
Cmax [4, 12]: 850 ng/mL
AUC [4, 12]: 698 ng·h/mL
Cmax [4, 13]: 3280 ng/mL
AUC [4, 13]: 3860 ng·h/mL
Cmax [4, 14]: 10200 ng/mL
AUC [4, 14]: 11300 ng·h/mL
